Reference: ChEMBL document CHEMBL5303573, “Mapping human microbiome drug metabolism by gut bacteria and their genes” (Nature, 2019)

Columns and labels:
[1] = The drug is tested on Providencia stuartii strain: ATCC25827 for biotransformation. The drug concentrations were measured before and after a 12-h incubation by liquid-chromatography-coupled mass spectrometry (LC–MS); details: 2 µM
[2] = The drug is tested on Edwardsiella tarda strain: ATCC23685 for biotransformation. The drug concentrations were measured before and after a 12-h incubation by liquid-chromatography-coupled mass spectrometry (LC–MS); details: 2 µM
[3] = The drug is tested on Bacteroides fragilis strain: HMW610 for biotransformation. The drug concentrations were measured before and after a 12-h incubation by liquid-chromatography-coupled mass spectrometry (LC–MS); details: 2 µM
[4] = The drug is tested on Clostridium sp. strain: fecal isolate for biotransformation. The drug concentrations were measured before and after a 12-h incubation by liquid-chromatography-coupled mass spectrometry (LC–MS); details: 2 µM
[5] = segatella copri, 12 h, 2 µM
Description: The drug is tested on Prevotella copri strain: DSM18205 for biotransformation. The drug concentrations were measured before and after a 12-h incubation by liquid-chromatography-coupled mass spectrometry (LC–MS)

[6] = The drug is tested on Providencia rettgeri strain: DSM1131 for biotransformation. The drug concentrations were measured before and after a 12-h incubation by liquid-chromatography-coupled mass spectrometry (LC–MS); type: ADME; design: dose 2 uM, timepoint 0 vs 12 hours; details: 2 µM
[7] = anaerostipes sp., 12 h, 2 µM
Description: The drug is tested on Anaerostipes sp. strain: fecal isolate for biotransformation. The drug concentrations were measured before and after a 12-h incubation by liquid-chromatography-coupled mass spectrometry (LC–MS)

[8] = The drug is tested on Blautia luti strain: DSM14534 for biotransformation. The drug concentrations were measured before and after a 12-h incubation by liquid-chromatography-coupled mass spectrometry (LC–MS); type: ADME; design: dose 2 uM, timepoint 0 vs 12 hours; details: 2 µM
[9] = parabacteroides johnsonii, 12 h, 2 µM
Description: The drug is tested on Parabacteroides johnsonii strain: DSM18315 for biotransformation. The drug concentrations were measured before and after a 12-h incubation by liquid-chromatography-coupled mass spectrometry (LC–MS)

[10] = bacteroides fragilis, 12 h, 2 µM
Description: The drug is tested on Bacteroides fragilis strain: 3397 (T10) for biotransformation. The drug concentrations were measured before and after a 12-h incubation by liquid-chromatography-coupled mass spectrometry (LC–MS)

[11] = The drug is tested on Dorea formicigenerans strain: ATCC27755 for biotransformation. The drug concentrations were measured before and after a 12-h incubation by liquid-chromatography-coupled mass spectrometry (LC–MS); details: 2 µM
[12] = The drug is tested on Collinsella intestinalis strain: DSM13280 for biotransformation. The drug concentrations were measured before and after a 12-h incubation by liquid-chromatography-coupled mass spectrometry (LC–MS); details: 2 µM
[13] = The drug is tested on Ruminococcus torques strain: ATCC27756 for biotransformation. The drug concentrations were measured before and after a 12-h incubation by liquid-chromatography-coupled mass spectrometry (LC–MS); type: ADME; design: dose 2 uM, timepoint 0 vs 12 hours; details: 2 µM
[14] = The drug is tested on Clostridium symbiosum strain: ATCC14940 for biotransformation. The drug concentrations were measured before and after a 12-h incubation by liquid-chromatography-coupled mass spectrometry (LC–MS); details: 2 µM
[15] = The drug is tested on Subdoligranulum variabile strain: DSM15176 for biotransformation. The drug concentrations were measured before and after a 12-h incubation by liquid-chromatography-coupled mass spectrometry (LC–MS); details: 2 µM
[16] = bacteroides fragilis, 12 h, 2 µM; remark: listed apart in the source
Description: The drug is tested on Bacteroides fragilis strain: NCTC 9343 for biotransformation. The drug concentrations were measured before and after a 12-h incubation by liquid-chromatography-coupled mass spectrometry (LC–MS)

[17] = The drug is tested on Clostridium sporogenes strain: ATCC15579 for biotransformation. The drug concentrations were measured before and after a 12-h incubation by liquid-chromatography-coupled mass spectrometry (LC–MS); details: 2 µM
[18] = akkermansia muciniphila, 12 h, 2 µM
Description: The drug is tested on Akkermansia muciniphila strain: ATCC BAA-835 for biotransformation. The drug concentrations were measured before and after a 12-h incubation by liquid-chromatography-coupled mass spectrometry (LC–MS)

[19] = bacteroides thetaiotaomicron, 12 h, 2 µM
Description: The drug is tested on Bacteroides thetaiotaomicron strain: 3731 for biotransformation. The drug concentrations were measured before and after a 12-h incubation by liquid-chromatography-coupled mass spectrometry (LC–MS)

[20] = The drug is tested on Bacteroides caccae strain: ATCC43185 for biotransformation. The drug concentrations were measured before and after a 12-h incubation by liquid-chromatography-coupled mass spectrometry (LC–MS); details: 2 µM

| SMILES | Bacterial Biotransformation [1] | Bacterial Biotransformation [2] | Bacterial Biotransformation [3] | Bacterial Biotransformation [4] | Bacterial Biotransformation [5] | Bacterial Biotransformation [6] | Bacterial Biotransformation [7] | Bacterial Biotransformation [8] | Bacterial Biotransformation [9] | Bacterial Biotransformation [10] | Bacterial Biotransformation [11] | Bacterial Biotransformation [12] | Bacterial Biotransformation [13] | Bacterial Biotransformation [14] | Bacterial Biotransformation [15] | Bacterial Biotransformation [16] | Bacterial Biotransformation [17] | Bacterial Biotransformation [18] | Bacterial Biotransformation [19] | Bacterial Biotransformation [20] |
| --- | --- | --- | --- | --- | --- | --- | --- | --- | --- | --- | --- | --- | --- | --- | --- | --- | --- | --- | --- | --- |
| CN1CCC[C@@H]1CCO[C@](C)(c1ccccc1)c1ccc(Cl)cc1.O=C(O)/C=C/C(=O)O [CLEMASTINE FUMARATE] | Compound NOT metabolized | Compound NOT metabolized | Compound metabolized | Compound metabolized | Compound metabolized | Compound metabolized | Compound NOT metabolized | Compound NOT metabolized | Compound NOT metabolized | Compound metabolized | Compound NOT metabolized | Compound NOT metabolized | Compound NOT metabolized | Compound NOT metabolized | Compound NOT metabolized | Compound metabolized |  |  |  |  |
| CC(NC(C)(C)C)C(=O)c1cccc(Cl)c1 (configuration not stated) [BUPROPION] |  | Compound NOT metabolized | Compound NOT metabolized | Compound NOT metabolized | Compound NOT metabolized |  | Compound NOT metabolized | Compound NOT metabolized | Compound NOT metabolized | Compound NOT metabolized | Compound NOT metabolized | Compound NOT metabolized | Compound NOT metabolized |  | Compound NOT metabolized | Compound NOT metabolized | Compound NOT metabolized | Compound NOT metabolized | Compound NOT metabolized | Compound NOT metabolized |
| CC(C(=O)O)c1ccc2c(c1)Cc1cccnc1O2 (configuration not stated) [PRANOPROFEN] | Compound metabolized | Compound metabolized | Compound metabolized | Compound metabolized | Compound metabolized | Compound metabolized | Compound NOT metabolized | Compound NOT metabolized | Compound metabolized | Compound metabolized | Compound metabolized |  |  | Compound metabolized | Compound NOT metabolized | Compound metabolized |  | Compound metabolized | Compound metabolized | Compound metabolized |
| CN1CCN(C2=Nc3cc(Cl)ccc3Nc3ccccc32)CC1 [CLOZAPINE] | Compound NOT metabolized | Compound NOT metabolized | Compound NOT metabolized | Compound NOT metabolized | Compound NOT metabolized | Compound NOT metabolized | Compound NOT metabolized | Compound NOT metabolized | Compound NOT metabolized | Compound NOT metabolized | Compound NOT metabolized | Compound NOT metabolized | Compound NOT metabolized | Compound NOT metabolized | Compound NOT metabolized | Compound NOT metabolized |  | Compound NOT metabolized | Compound NOT metabolized | Compound NOT metabolized |
| CCOC(=O)[C@H](CCc1ccccc1)N[C@@H](C)C(=O)N1Cc2ccccc2C[C@H]1C(=O)O | Compound metabolized | Compound NOT metabolized |  | Compound metabolized | Compound metabolized | Compound NOT metabolized | Compound NOT metabolized | Compound NOT metabolized | Compound metabolized | Compound metabolized | Compound NOT metabolized | Compound metabolized | Compound NOT metabolized | Compound metabolized | Compound metabolized | Compound metabolized |  |  | Compound metabolized | Compound metabolized |
| O=P1(N(CCCl)CCCl)NCCCO1 (configuration not stated) [CYCLOPHOSPHAMIDE ANHYDROUS] | Compound NOT metabolized |  |  | Compound NOT metabolized | Compound NOT metabolized |  |  | Compound NOT metabolized | Compound NOT metabolized | Compound NOT metabolized |  | Compound NOT metabolized | Compound NOT metabolized | Compound NOT metabolized | Compound NOT metabolized | Compound NOT metabolized | Compound NOT metabolized | Compound NOT metabolized | Compound NOT metabolized |  |
| CC#C[C@]1(O)CC[C@H]2[C@@H]3CCC4=CC(=O)CCC4=C3[C@@H](c3ccc(N(C)C)cc3)C[C@@]21C [MIFEPRISTONE] | Compound NOT metabolized | Compound NOT metabolized | Compound metabolized | Compound metabolized | Compound NOT metabolized | Compound NOT metabolized | Compound NOT metabolized | Compound NOT metabolized | Compound NOT metabolized | Compound NOT metabolized | Compound NOT metabolized | Compound NOT metabolized | Compound NOT metabolized | Compound NOT metabolized | Compound NOT metabolized | Compound metabolized |  | Compound NOT metabolized | Compound NOT metabolized | Compound NOT metabolized |
| CC[C@H](C)C(=O)O[C@H]1C[C@@H](C)C=C2C=C[C@H](C)[C@H](CC[C@@H]3C[C@@H](O)CC(=O)O3)[C@H]21 [LOVASTATIN] |  | Compound NOT metabolized | Compound metabolized | Compound metabolized | Compound NOT metabolized | Compound metabolized | Compound NOT metabolized | Compound NOT metabolized | Compound metabolized | Compound metabolized | Compound NOT metabolized | Compound NOT metabolized | Compound NOT metabolized | Compound NOT metabolized | Compound NOT metabolized | Compound metabolized |  | Compound NOT metabolized | Compound NOT metabolized | Compound NOT metabolized |
